What was measured:
CK1α = target: T1, CK1α (Homo sapiens, UniProt P48729+Q96SW2); test: Western-blot assay, substrate protein degradation in hPBMCs: CK1α; assay type: cell-based; conditions: for substrate protein remaining % CK1α: 24 hours of compound treatment, 50 nM and 500 nM
T1 construct: effects of the compounds of the present disclosure on the expression of target proteins in cells; endogenous in cells; host or cells: human PBMCs (hPBMCs)

IKZF2 = target: T2, IKZF2 (Homo sapiens, UniProt Q96SW2+Q9UKS7); test: Western-blot assay, substrate protein degradation in hPBMCs: IKZF2; assay type: cell-based; conditions: for substrate protein remaining % IKZF2: 24 hours of compound treatment, 50 nM and 500 nM
T2 construct: effects of the compounds of the present disclosure on the expression of target proteins in cells; endogenous in cells; host or cells: human PBMCs (hPBMCs)

IKZF1 = target: T3, IKZF1 (Homo sapiens, UniProt Q13422+Q96SW2); test: Western-blot assay, substrate protein degradation in hPBMCs: IKZF1; assay type: cell-based; conditions: for substrate protein remaining % IKZF1: 24 hours of compound treatment, 50 nM and 500 nM
T3 construct: effects of the compounds of the present disclosure on the expression of target proteins in cells; endogenous in cells; host or cells: human PBMCs (hPBMCs)

GSPT1 = target: T4, GSPT1 (Homo sapiens, UniProt P15170+Q96SW2); test: Western-blot assay, substrate protein degradation in hPBMCs: GSPT1; assay type: cell-based; conditions: for substrate protein remaining % GSPT1: 24 hours of compound treatment, 50 nM and 500 nM
T4 construct: effects of the compounds of the present disclosure on the expression of target proteins in cells; endogenous in cells; host or cells: human PBMCs (hPBMCs)

H292 = test: Cell viability assay (CellTiter-Meiluncell Luminescent), tumor cell proliferation, H292; conditions: Homo sapiens, NCI-H292, 96 h; for inhibition at 0.01 µM: read-out: Inhibition Rate at 10 nM (%); for inhibition at 0.5 µM: read-out: Inhibition Rate at 500 nM (%)
H2228 = test: Cell viability assay (CellTiter-Meiluncell Luminescent), tumor cell proliferation, H2228; conditions: Homo sapiens, NCI-H2228, 96 h; for inhibition at 0.01 µM: read-out: Inhibition Rate at 10 nM (%); for inhibition at 0.5 µM: read-out: Inhibition Rate at 500 nM (%)
Experimental: The tumor cells used herein were cultured in a cell culture medium listed in table 2 at 37°C in an incubator with 5% CO2. Prior to experimentation, all cell lines used were correctly identified by STR profiling, and tested negative for mycoplasma contamination using a mycoplasma detection kit through routine screenings.
On the following day, the test compounds of the present disclosure were subjected to serial dilution. […] Subsequently, 0.5 µL of the test compound dilution was transferred into the 96-well plate containing the cells, with each well containing 100 µL of cell culture medium. […] Into the 96-well plate, the diluted test compounds and corresponding detection reagents were added, resulting in final test compound concentrations of 500 nM and 10 nM, respectively. The experimental procedure is described below using the diluted 2 µM test compound as an example.
After the cells were treated with the compounds of the present disclosure for a specified period, the cell viability assay reagent was added to the culture medium according to the kit's instructions to determine cell viability. […] All controls were treated using the same procedure as the compounds of the present disclosure. The growth inhibition curves for the compounds of the present disclosure were plotted using Prism GraphPad software, and the IC50 values were calculated therefrom.

WEE1 = target: T5, WEE1 (Homo sapiens, UniProt P30291+Q96SW2); test: Western-blot assay, substrate protein degradation in hPBMCs: WEE1; assay type: cell-based; conditions: for substrate protein remaining % WEE1: 24 hours of compound treatment, 50 nM and 500 nM
T5 construct: effects of the compounds of the present disclosure on the expression of target proteins in cells; endogenous in cells; host or cells: human PBMCs (hPBMCs)

MDA-MB-231 = test: Cell viability assay (CellTiter-Meiluncell Luminescent), tumor cell proliferation, MDA-MB-231; conditions: Homo sapiens, MDA-MB-231, 96 h; for inhibition at 0.01 µM: read-out: Inhibition Rate at 10 nM (%); for inhibition at 0.5 µM: read-out: Inhibition Rate at 500 nM (%)
MM.1S = test: Cell viability assay (CellTiter-Meiluncell Luminescent), tumor cell proliferation, MM.1S; conditions: Homo sapiens, MM1.S, 96 h; for inhibition at 0.01 µM: read-out: Inhibition Rate at 10 nM (%); for inhibition at 0.5 µM: read-out: Inhibition Rate at 500 nM (%)
IKZF3 = target: T6, IKZF3 (Homo sapiens, UniProt Q96SW2+Q9UKT9); test: Western-blot assay, substrate protein degradation in hPBMCs: IKZF3; assay type: cell-based; conditions: for substrate protein remaining % IKZF3: 24 hours of compound treatment, 50 nM and 500 nM
T6 construct: effects of the compounds of the present disclosure on the expression of target proteins in cells; endogenous in cells; host or cells: human PBMCs (hPBMCs)

MV-4-11 = test: Cell viability assay (CellTiter-Meiluncell Luminescent), tumor cell proliferation, MV-4-11; conditions: Homo sapiens, MV4-11, 96 h; for inhibition at 0.01 µM: read-out: Inhibition Rate at 10 nM (%); for inhibition at 0.5 µM: read-out: Inhibition Rate at 500 nM (%)
Jurkat = test: Cell viability assay (CellTiter-Meiluncell Luminescent), tumor cell proliferation, Jurkat; conditions: Homo sapiens, 96 h, read-out: inhibitory activity (IC50, nM) against tumor cells proliferation, Jurkat
[1] = compounds at 50 nM and 500 nM, 24 hours

T5 sequence (P30291 whole entry): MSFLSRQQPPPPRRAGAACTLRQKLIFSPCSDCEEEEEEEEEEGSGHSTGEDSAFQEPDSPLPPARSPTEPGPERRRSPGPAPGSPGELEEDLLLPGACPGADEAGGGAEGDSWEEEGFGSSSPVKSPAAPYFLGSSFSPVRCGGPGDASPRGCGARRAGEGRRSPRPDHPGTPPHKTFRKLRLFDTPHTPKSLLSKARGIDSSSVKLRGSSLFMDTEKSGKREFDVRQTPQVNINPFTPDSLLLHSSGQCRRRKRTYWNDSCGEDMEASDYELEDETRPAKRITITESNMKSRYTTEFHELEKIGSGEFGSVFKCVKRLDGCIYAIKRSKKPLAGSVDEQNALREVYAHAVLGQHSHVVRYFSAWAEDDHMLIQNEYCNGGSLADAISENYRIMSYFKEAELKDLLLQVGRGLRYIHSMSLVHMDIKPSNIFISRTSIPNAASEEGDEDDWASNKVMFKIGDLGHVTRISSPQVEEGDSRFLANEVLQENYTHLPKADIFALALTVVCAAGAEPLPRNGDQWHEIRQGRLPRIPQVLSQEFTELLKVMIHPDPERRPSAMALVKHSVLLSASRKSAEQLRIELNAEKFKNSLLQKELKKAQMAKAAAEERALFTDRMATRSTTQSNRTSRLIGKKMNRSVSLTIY
T5 sequence (Q96SW2 whole entry): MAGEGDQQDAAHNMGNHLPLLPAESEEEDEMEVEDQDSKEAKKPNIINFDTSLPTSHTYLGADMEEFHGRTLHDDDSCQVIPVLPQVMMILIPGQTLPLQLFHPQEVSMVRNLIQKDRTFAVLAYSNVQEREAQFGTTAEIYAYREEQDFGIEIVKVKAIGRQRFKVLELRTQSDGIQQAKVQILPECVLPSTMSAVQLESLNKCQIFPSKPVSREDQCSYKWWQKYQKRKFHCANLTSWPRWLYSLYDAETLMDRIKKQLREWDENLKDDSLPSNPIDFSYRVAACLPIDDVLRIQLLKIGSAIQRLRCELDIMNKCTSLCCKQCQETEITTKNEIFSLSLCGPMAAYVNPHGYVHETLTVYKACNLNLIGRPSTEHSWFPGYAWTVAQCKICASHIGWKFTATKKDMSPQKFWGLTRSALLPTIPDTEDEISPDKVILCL
T5 sequence (Q16531 whole entry partner): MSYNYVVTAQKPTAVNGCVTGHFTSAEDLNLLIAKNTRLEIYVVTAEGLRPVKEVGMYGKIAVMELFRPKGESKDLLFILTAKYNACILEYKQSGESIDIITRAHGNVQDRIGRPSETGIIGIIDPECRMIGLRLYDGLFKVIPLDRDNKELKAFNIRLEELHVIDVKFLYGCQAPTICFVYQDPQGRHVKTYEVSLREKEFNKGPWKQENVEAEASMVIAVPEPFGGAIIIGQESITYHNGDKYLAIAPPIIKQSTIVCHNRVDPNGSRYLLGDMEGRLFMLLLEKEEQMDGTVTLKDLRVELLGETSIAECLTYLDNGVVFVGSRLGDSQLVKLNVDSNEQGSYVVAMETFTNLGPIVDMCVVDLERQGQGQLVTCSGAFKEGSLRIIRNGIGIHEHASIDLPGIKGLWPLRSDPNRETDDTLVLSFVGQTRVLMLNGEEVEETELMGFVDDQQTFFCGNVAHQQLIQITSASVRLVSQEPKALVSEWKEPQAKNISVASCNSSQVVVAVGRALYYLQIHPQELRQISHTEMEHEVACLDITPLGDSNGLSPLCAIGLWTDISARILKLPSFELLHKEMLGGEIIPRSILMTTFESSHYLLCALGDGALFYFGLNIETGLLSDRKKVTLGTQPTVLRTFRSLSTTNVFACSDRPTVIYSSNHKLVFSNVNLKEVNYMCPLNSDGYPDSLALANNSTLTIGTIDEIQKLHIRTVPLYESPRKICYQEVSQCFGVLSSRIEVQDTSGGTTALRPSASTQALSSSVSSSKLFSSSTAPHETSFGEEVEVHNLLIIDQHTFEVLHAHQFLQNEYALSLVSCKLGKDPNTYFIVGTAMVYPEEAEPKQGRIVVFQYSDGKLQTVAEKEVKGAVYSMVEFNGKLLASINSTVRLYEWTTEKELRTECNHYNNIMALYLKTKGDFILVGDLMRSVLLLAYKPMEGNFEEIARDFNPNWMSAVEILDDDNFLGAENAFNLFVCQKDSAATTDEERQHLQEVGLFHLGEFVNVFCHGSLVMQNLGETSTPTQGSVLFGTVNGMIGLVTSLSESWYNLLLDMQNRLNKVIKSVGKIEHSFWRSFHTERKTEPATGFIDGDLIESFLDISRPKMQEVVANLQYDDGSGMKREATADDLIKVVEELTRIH
T4 sequence (P15170 whole entry): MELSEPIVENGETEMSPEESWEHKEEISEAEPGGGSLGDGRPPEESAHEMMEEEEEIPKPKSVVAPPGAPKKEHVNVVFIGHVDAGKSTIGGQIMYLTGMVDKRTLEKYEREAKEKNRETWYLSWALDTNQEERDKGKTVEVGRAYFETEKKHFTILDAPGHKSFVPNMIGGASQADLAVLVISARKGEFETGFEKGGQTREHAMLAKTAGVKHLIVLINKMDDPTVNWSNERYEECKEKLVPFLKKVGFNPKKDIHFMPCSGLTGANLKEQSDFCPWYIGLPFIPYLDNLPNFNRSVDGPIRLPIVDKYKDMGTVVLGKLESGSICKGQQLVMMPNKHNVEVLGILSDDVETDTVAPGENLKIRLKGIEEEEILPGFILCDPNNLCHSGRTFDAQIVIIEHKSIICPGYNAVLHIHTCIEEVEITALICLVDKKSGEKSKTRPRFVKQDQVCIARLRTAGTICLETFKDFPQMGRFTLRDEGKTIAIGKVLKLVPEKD
T4 sequence (Q96SW2 whole entry): as the sequence (Q96SW2 whole entry) above
T4 sequence (Q16531 whole entry partner): as the sequence (Q16531 whole entry partner) above
T6 sequence (Q9UKT9 whole entry): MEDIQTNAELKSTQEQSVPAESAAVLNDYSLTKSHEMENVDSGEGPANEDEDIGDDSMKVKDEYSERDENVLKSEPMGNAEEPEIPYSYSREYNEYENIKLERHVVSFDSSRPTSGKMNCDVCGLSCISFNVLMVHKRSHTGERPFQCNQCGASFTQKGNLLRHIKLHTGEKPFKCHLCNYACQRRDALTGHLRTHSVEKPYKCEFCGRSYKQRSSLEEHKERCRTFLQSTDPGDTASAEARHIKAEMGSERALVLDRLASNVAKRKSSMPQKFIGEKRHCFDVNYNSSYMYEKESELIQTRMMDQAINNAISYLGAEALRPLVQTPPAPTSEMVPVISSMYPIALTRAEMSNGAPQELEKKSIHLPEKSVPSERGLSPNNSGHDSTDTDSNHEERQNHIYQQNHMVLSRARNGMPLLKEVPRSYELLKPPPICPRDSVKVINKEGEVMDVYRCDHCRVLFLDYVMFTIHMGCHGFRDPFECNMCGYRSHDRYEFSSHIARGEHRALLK
T6 sequence (Q96SW2 whole entry): as the sequence (Q96SW2 whole entry) above
T6 sequence (Q16531 whole entry partner): as the sequence (Q16531 whole entry partner) above
T2 sequence (Q9UKS7 whole entry): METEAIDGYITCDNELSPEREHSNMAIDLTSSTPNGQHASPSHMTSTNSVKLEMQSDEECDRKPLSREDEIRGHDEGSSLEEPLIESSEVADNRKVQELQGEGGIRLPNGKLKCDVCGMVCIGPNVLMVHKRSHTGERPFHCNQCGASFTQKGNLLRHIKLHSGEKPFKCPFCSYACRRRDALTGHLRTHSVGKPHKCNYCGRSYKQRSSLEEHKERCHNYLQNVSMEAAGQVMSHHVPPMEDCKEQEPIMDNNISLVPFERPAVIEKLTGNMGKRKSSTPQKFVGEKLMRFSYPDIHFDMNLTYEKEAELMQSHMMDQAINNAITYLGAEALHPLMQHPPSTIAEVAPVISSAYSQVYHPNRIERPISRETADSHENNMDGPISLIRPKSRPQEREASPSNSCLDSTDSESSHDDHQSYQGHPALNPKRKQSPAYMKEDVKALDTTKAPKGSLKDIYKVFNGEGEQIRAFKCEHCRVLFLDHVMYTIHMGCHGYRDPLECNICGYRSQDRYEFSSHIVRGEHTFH
T2 sequence (Q96SW2 whole entry): as the sequence (Q96SW2 whole entry) above
T2 sequence (Q16531 whole entry partner): as the sequence (Q16531 whole entry partner) above
T3 sequence (Q13422 whole entry): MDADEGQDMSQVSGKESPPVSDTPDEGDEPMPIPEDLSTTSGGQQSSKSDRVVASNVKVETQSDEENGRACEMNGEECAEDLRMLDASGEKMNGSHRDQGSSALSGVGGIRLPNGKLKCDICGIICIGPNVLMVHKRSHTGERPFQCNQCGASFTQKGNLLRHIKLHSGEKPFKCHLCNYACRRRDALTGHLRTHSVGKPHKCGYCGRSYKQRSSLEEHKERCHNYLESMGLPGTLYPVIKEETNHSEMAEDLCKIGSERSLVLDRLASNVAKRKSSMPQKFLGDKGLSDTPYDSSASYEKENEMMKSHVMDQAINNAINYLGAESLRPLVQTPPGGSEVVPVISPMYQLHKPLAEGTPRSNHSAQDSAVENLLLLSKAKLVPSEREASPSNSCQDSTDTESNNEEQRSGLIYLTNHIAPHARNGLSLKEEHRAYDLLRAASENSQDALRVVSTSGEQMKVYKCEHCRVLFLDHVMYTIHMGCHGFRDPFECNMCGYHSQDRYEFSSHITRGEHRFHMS
T3 sequence (Q96SW2 whole entry): as the sequence (Q96SW2 whole entry) above
T3 sequence (Q16531 whole entry partner): as the sequence (Q16531 whole entry partner) above

| Compound | substrate protein remaining % CK1α (CK1α) | substrate protein remaining % IKZF2 (IKZF2) | substrate protein remaining % IKZF1 (IKZF1) | substrate protein remaining % GSPT1 (GSPT1) | inhibition at 0.01 µM (H292) | inhibition at 0.5 µM (H292) | inhibition at 0.01 µM (H2228) | inhibition at 0.5 µM (H2228) | substrate protein remaining % WEE1 (WEE1) | inhibition at 0.01 µM (MDA-MB-231) | inhibition at 0.5 µM (MDA-MB-231) | inhibition at 0.01 µM (MM.1S) | inhibition at 0.5 µM (MM.1S) | substrate protein remaining % IKZF3 (IKZF3) | inhibition at 0.01 µM (MV-4-11) | inhibition at 0.5 µM (MV-4-11) | further results |
| --- | --- | --- | --- | --- | --- | --- | --- | --- | --- | --- | --- | --- | --- | --- | --- | --- | --- |
| Cc1nc(C2CCN(Cc3ccc4c(c3)CN(N3CCC(=O)NC3=O)C4=O)CC2)c2ccsc2n1 [GT-08088, 1-(5-((4-(2-methylthieno[2,3-d]pyrimidin-4-yl)piperidin-1-yl)methyl)-1-oxoisoindolin-2-yl)dihydropyrimidine-2,4(1H,3H)-dione] | A (0% ≤ substrate protein remaining % ≤ 80%) | B (80%< substrate protein remaining %≤ 100%) | B (80%< substrate protein remaining %≤ 100%) | A (0% ≤ substrate protein remaining % ≤ 80%) | 20 to 40% | 20 to 40% | 25 to 30% | 25 to 30% | A (0% ≤ substrate protein remaining % ≤ 80%) | 18 to 25% | 25 to 40% | 42 to 60% | 42 to 60% | B (80%< substrate protein remaining %≤ 100%) | 40 to 60% | 30 to 40% | – |
| O=C1CCN(N2C(=O)c3ccc(CN4CCN(c5ncc(C(F)(F)F)cc5Cl)CC4)cc3C2=O)C(=O)N1 [GT-07026, 5-((4-(3-chloro-5-(trifluoromethyl)pyridin-2-yl)piperazin-1-yl)methyl)-2-(2,4-dioxotetrahydropyrimidin-1(2H)-yl)isoindoline-1,3-dione] | – | – | – | – | – | – | – | – | – | – | – | – | – | – | – | – | CK1α substrate protein remaining % (CK1α; [1]): B ("B" is defined as 80%< substrate protein remaining %≤ 100%); IKZF2 substrate protein remaining % (IKZF2; [1]): B ("B" is defined as 80%< substrate protein remaining %≤ 100%); IKZF1 substrate protein remaining % (IKZF1; [1]): B ("B" is defined as 80%< substrate protein remaining %≤ 100%); GSPT1 substrate protein remaining % (GSPT1; [1]): A ("A" is defined as 0% ≤ substrate protein remaining % ≤ 80%); IC50 (Jurkat): 500 to 1000 nM; WEE1 substrate protein remaining % (WEE1; [1]): A ("A" is defined as 0% ≤ substrate protein remaining % ≤ 80%); IKZF3 substrate protein remaining % (IKZF3; [1]): B ("B" is defined as 80%< substrate protein remaining %≤ 100%) |
| O=C1CCN(N2Cc3cc(CN4CCC(c5ncnc6sc(-c7ccccc7)cc56)CC4)ccc3C2=O)C(=O)N1 [GT-08085, 1-(1-oxo-5-((4-(6-phenylthieno[2,3-d]pyrimidin-4-yl)piperidin-1-yl)methyl)isoindolin-2-yl)dihydropyrimidine-2,4(1H,3H)-dione] | A (0% ≤ substrate protein remaining % ≤ 80%) | B (80%< substrate protein remaining %≤ 100%) | B (80%< substrate protein remaining %≤ 100%) | A (0% ≤ substrate protein remaining % ≤ 80%) | 20 to 40% | 40 to 60% | 25 to 30% | 30 to 40% | B (80%< substrate protein remaining %≤ 100%) | 25 to 40% | 40 to 60% | 30 to 42% | 42 to 60% | B (80%< substrate protein remaining %≤ 100%) | 30 to 40% | 25 to 30% | – |
| O=C1CCN(N2Cc3cc(CN4CC=C(c5ncnc6sccc56)CC4)ccc3C2=O)C(=O)N1 [GT-08116, 1-(1-oxo-5-((4-(thieno[2,3-d]pyrimidin-4-yl)-3,6-dihydropyridin-1(2H)-yl)methyl)isoindolin-2-yl)dihydropyrimidine-2,4(1H,3H)-dione] | A (0% ≤ substrate protein remaining % ≤ 80%) | B (80%< substrate protein remaining %≤ 100%) | A (0% ≤ substrate protein remaining % ≤ 80%) | A (0% ≤ substrate protein remaining % ≤ 80%) | 15 to 20% | 15 to 20% | 15 to 20% | 20 to 25% | A (0% ≤ substrate protein remaining % ≤ 80%) | 25 to 40% | 25 to 40% | 10 to 20% | 60 to 80% | A (0% ≤ substrate protein remaining % ≤ 80%) | 40 to 60% | 80 to 100% | – |
| CC(C)c1cc2c(C3=CCN(Cc4ccc5c(c4)CN(N4CCC(=O)NC4=O)C5=O)CC3)ncnc2s1 [GT-08158, 1-(5-((4-(6-isopropylthieno[2,3-d]pyrimidin-4-yl)-3,6-dihydropyridin-1(2H)-yl)methyl)-1-oxoisoindolin-2-yl)dihydropyrimidine-2,4(1H,3H)-dione] | – | – | – | – | 20 to 40% | 40 to 60% | 25 to 30% | 60 to 80% | – | 18 to 25% | 80 to 100% | 5 to 10% | 80 to 100% | – | 30 to 40% | 100 to 110% | – |
| Nc1cccc2c1CN(C1CCC(=O)NC1=O)C2=O (centres unmarked) [lenalidomide, reference compound] | – | – | – | – | 0 to 1% | 5 to 10% | 20 to 25% | 15 to 20% | – | 15 to 18% | 10 to 15% | 10 to 20% | 30 to 42% | – | 10 to 18% | 10 to 18% | – |
| Cc1sc2ncnc(C3=CCN(Cc4ccc5c(c4)CN(N4CCC(=O)NC4=O)C5=O)CC3)c2c1C [GT-08159, 1-(5-((4-(5,6-dimethylthieno[2,3-d]pyrimidin-4-yl)-3,6-dihydropyridin-1(2H)-yl)methyl)-1-oxoisoindolin-2-yl)dihydropyrimidine-2,4(1H,3H)-dione] | – | – | – | – | 15 to 20% | 20 to 40% | 10 to 15% | 25 to 30% | – | 10 to 15% | 18 to 25% | 0 to 5% | 60 to 80% | – | 30 to 40% | 80 to 100% | – |
| O=C1CCN(N2C(=O)c3ccc(CN4CCN(c5ncnc6sccc56)CC4)cc3C2=O)C(=O)N1 [GT-08090, 2-(2,4-dioxotetrahydropyrimidin-1(2H)-yl)-5-((4-(thieno[2,3-d]pyrimidin-4-yl)piperazin-1-yl)methyl)isoindoline-1,3-dione] | A (0% ≤ substrate protein remaining % ≤ 80%) | B (80%< substrate protein remaining %≤ 100%) | B (80%< substrate protein remaining %≤ 100%) | A (0% ≤ substrate protein remaining % ≤ 80%) | 15 to 20% | 15 to 20% | 20 to 25% | 20 to 25% | A (0% ≤ substrate protein remaining % ≤ 80%) | 15 to 18% | 18 to 25% | 30 to 42% | 42 to 60% | B (80%< substrate protein remaining %≤ 100%) | 60 to 80% | 60 to 80% | – |
